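Cultured in 96-well plates, cells were exposed to test compound for 48 hours across five concentrations. Here, GI50 denotes the concentration required for 50% inhibition of growth. Definition used: TGI = concentration required for complete inhibition of growth.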

Experimental findings from PubChem BioAssay (NCI) are described below.

Test systems include DU-145 prostate; HCC-2998 colon; HCT-15 colon; KM12 colon; MDA-MB-231 breast; OVCAR-5 ovarian; PC-3 prostate; SK-MEL-2 melanoma; SK-MEL-5 melanoma; T-47D breast.
Holding throughout (test): NCI-60 cell line screen, 48 h

As to `ClCCN(CCCl)c1ccc(-n2cnc3c(Cl)ncnc32)cc1`, the GI50 in the assay with DU-145 prostate is 1.88 µM; in the assay on HCC-2998 colon, 1.84 µM; with HCT-15 colon, 1.79 µM; in the assay on KM12 colon, 6.16 µM; in the assay on MDA-MB-231 breast it was 3.28 µM; in the assay on OVCAR-5 ovarian, 17.9 µM. Further, the GI50 with PC-3 prostate is 4.38 µM; in the assay with SK-MEL-2 melanoma, 14 µM; with SK-MEL-5 melanoma, 2.36 µM; in the assay with T-47D breast it was 3.28 µM. Further, the TGI with DU-145 prostate is 3.59 µM; in the assay on HCC-2998 colon it was 3.41 µM; with HCT-15 colon it was 3.65 µM; with KM12 colon, 19.5 µM; in the assay with MDA-MB-231 breast it was 11.1 µM; in the assay with OVCAR-5 ovarian, 35.9 µM. Further, the TGI was found to be 18.2 µM in the assay with PC-3 prostate, 27.6 µM in the assay on SK-MEL-2 melanoma, 5.94 µM in the assay with SK-MEL-5 melanoma and 12.9 µM in the assay with T-47D breast.
As for `COc1ccc(O)c(C(=O)c2ccc(C(=O)O[C@@H]3CCCNC[C@H]3NC(=O)c3ccncc3)cc2)c1F`, the GI50 is 1.47 µM in the assay on DU-145 prostate; 2.08 µM in the assay on HCC-2998 colon; 0.918 µM in the assay with HCT-15 colon; 0.8 µM with KM12 colon; more than 10.3 µM in the assay on MDA-MB-231 breast; more than 19.3 µM in the assay on OVCAR-5 ovarian. Further, the GI50 is 3.74 µM in the assay with PC-3 prostate, 0.89 µM in the assay with SK-MEL-2 melanoma, 0.541 µM in the assay with SK-MEL-5 melanoma and 1.36 µM with T-47D breast. For the same compound, the TGI in the assay with DU-145 prostate, with HCC-2998 colon, with HCT-15 colon, with KM12 colon, in the assay on MDA-MB-231 breast and with OVCAR-5 ovarian was more than 25 µM throughout. Besides, the TGI with PC-3 prostate was more than 25 µM; in the assay with SK-MEL-2 melanoma, 16.6 µM; with SK-MEL-5 melanoma, 3.15 µM; in the assay on T-47D breast, more than 25 µM.
Consider `COCCOC(=O)C1=C(C)NC2=C(C(=O)CC(c3ccccc3OC)C2)C1c1cccc(O)c1` (centres undefined), for which the GI50 is 23.5 µM with DU-145 prostate; 12.2 µM in the assay with HCC-2998 colon; 19.8 µM in the assay with HCT-15 colon; 11.5 µM in the assay on KM12 colon; 13 µM with MDA-MB-231 breast; 23.3 µM with OVCAR-5 ovarian. Besides, the GI50 in the assay on PC-3 prostate was 8.15 µM; in the assay with SK-MEL-2 melanoma, 10.1 µM; with SK-MEL-5 melanoma it was 3.54 µM; with T-47D breast, 5.99 µM. Also, the TGI is more than 91.9 µM in the assay on DU-145 prostate; 27 µM in the assay on HCC-2998 colon; more than 61.9 µM with HCT-15 colon; 30 µM in the assay with KM12 colon; more than 72.8 µM in the assay on MDA-MB-231 breast; more than 100 µM in the assay on OVCAR-5 ovarian. The TGI is more than 95.2 µM in the assay on PC-3 prostate, 26.7 µM in the assay with SK-MEL-2 melanoma, 16.6 µM in the assay with SK-MEL-5 melanoma and 54.3 µM in the assay on T-47D breast.
For the compound `COc1ccc2c(c1)CC[C@@H]1[C@@H]2CC[C@@]2(C)[C@H]1CC1(CCCCC1)[C@@H]2O`, the GI50 in the assay with DU-145 prostate was 15.2 µM; in the assay with HCC-2998 colon it was 14.1 µM; with HCT-15 colon, 2.59 µM; with KM12 colon, 7.91 µM; in the assay with MDA-MB-231 breast, 12.9 µM; with OVCAR-5 ovarian, 13.1 µM. Further, the GI50 is 7.93 µM with PC-3 prostate, 20.4 µM with SK-MEL-2 melanoma, 8.06 µM in the assay on SK-MEL-5 melanoma and 15.7 µM in the assay with T-47D breast. Besides, the TGI in the assay on DU-145 prostate was found to be 29.3 µM; with HCC-2998 colon, 28.5 µM; in the assay on HCT-15 colon, 10.2 µM; in the assay with KM12 colon, 27.3 µM; with MDA-MB-231 breast, 32.8 µM; in the assay on OVCAR-5 ovarian, 28.3 µM. Besides, the TGI in the assay on PC-3 prostate came to 21.7 µM; in the assay with SK-MEL-2 melanoma, 41.6 µM; in the assay with SK-MEL-5 melanoma it was 20.4 µM; in the assay with T-47D breast, 39.7 µM.
With `COC(CCP(=O)(c1ccccc1)c1ccccc1)(C(=O)c1ccccc1)c1ccccc1` (centres undefined), the GI50 with DU-145 prostate was 12 µM; with HCC-2998 colon it was 4.11 µM; in the assay with HCT-15 colon it was 3.19 µM; with KM12 colon, 3.06 µM; in the assay on MDA-MB-231 breast it was 2.69 µM; in the assay on OVCAR-5 ovarian it was 10.1 µM. In addition, the figures for the GI50 in the assay with PC-3 prostate, in the assay on SK-MEL-5 melanoma and in the assay with T-47D breast were 2.15 µM, 2.39 µM and 2.06 µM, respectively. The TGI is 24.3 µM in the assay on DU-145 prostate; 17.9 µM in the assay on HCC-2998 colon; 13.6 µM with HCT-15 colon; 13.4 µM in the assay on KM12 colon; 17 µM with MDA-MB-231 breast; 23.7 µM in the assay on OVCAR-5 ovarian. The TGI turned out to be 12.3 µM in the assay on PC-3 prostate, 10.9 µM in the assay with SK-MEL-5 melanoma and 12.3 µM in the assay with T-47D breast.
As to `CN1CCN(c2ccc3c4c(cccc24)C(=O)N(CCN2CCN(CCCN4CCN(CCN5C(=O)c6cccc7c(N8CCN(C)CC8)ccc(c67)C5=O)CC4)CC2)C3=O)CC1`, the GI50 is 7.19 µM with DU-145 prostate; 0.738 µM in the assay on HCC-2998 colon; 4.08 µM in the assay on HCT-15 colon; 4.34 µM in the assay with KM12 colon; 6.33 µM in the assay on MDA-MB-231 breast; 5.79 µM in the assay with OVCAR-5 ovarian. Besides, the figures for the GI50 in the assay on PC-3 prostate, in the assay with SK-MEL-5 melanoma and with T-47D breast were 5.14 µM, 8.59 µM and 19.8 µM, respectively. For the same compound, the TGI was 17 µM in the assay on DU-145 prostate; 4.4 µM in the assay with HCC-2998 colon; 11.3 µM in the assay with HCT-15 colon; 14.1 µM in the assay on KM12 colon; 13 µM with MDA-MB-231 breast; 11.9 µM in the assay on OVCAR-5 ovarian. Further, the TGI stood at 11.6 µM in the assay on PC-3 prostate, 18.6 µM in the assay on SK-MEL-5 melanoma and 50 µM in the assay with T-47D breast.
With `O=C(N/N=C1\CCc2ccccc2C1)N/N=C1\CCc2ccccc2C1`, the TGI in the assay with DU-145 prostate, with HCC-2998 colon, in the assay on HCT-15 colon, in the assay with KM12 colon, in the assay with MDA-MB-231 breast and in the assay on OVCAR-5 ovarian was more than 10 µM each time. For the same compound, the TGI in the assay on PC-3 prostate, in the assay with SK-MEL-2 melanoma and in the assay on T-47D breast was more than 10 µM each time.
As to `Nc1ccc2c(c1)C(=O)c1c(F)cccc1-2`, the TGI in the assay on DU-145 prostate, in the assay on HCC-2998 colon, in the assay on HCT-15 colon, in the assay with KM12 colon, with MDA-MB-231 breast and in the assay on PC-3 prostate was more than 100 µM each time. Also, the TGI in the assay on SK-MEL-2 melanoma was more than 100 µM; with SK-MEL-5 melanoma, 95.1 µM; with T-47D breast it was more than 100 µM.
